Counter-ions that a name gives are not always drawn.
Biological target: T1, human FPTase (Homo sapiens, UniProt P49354+P49356)
T1 construct: made in house
Assay: In vitro inhibition of human farnesyl-protein transferase
Format: biochemical
Settings: [3H]-FPP, 100 nM Ras-CVIM, 30 min, read-out: IC50 against human FPTase

IC50: < 10 µM
Structure (SMILES): CC(=O)N(CCNc1cccc(Cl)c1)Cc1cncn1Cc1ccc(C#N)cc1 [Example 1, N-[1-(4-cyanobenzyl)-5-imidazolylmethyl]-N-[2-((3-chlorophenyl)amino)ethyl]acetamide dihydrochloride]

Source: patent US5981562A, “Inhibitors of farnesyl-protein transferase” (Merck & Co., Inc., priority 1997, dated 1999)
